Laboratory results reported in patent publication US10472341B2, “Bicyclic tetrahydrothiazepine derivatives useful for the treatment of neoplastic and/or infectious diseases” (APEIRON BIOLOGICS AG, priority 2015, dated 2019).
Read-outs that look alike come from different tables or passages of the source.

Assays:
[1] = tested on: aCD3/aCD28-stimulated human PBMCs; assay: Cytokine production in aCD3/aCD28 stimulated human PBMCs; type: cell-based; conditions: PBMC, 18 h
Method in brief: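 Compound effects measured in buffy-coat PBMCs activated 18 h at 37° C by 1 μg/mL each of soluble anti-CD3 (OKT3) and anti-CD28 (28.2), 1e6 cells/mL. Cytokines in harvested supernatants read by MSD or HTRF.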

[2] = tested on: aCD3/aCD28-stimulated human CD4+-T-cells; assay: IL-2 production and activation markers in aCD3/aCD28 stimulated isolated human CD4+-T-cells; type: cell-based; conditions: IL-2 production at 3 μM compound
Method in brief: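 CD4+ T cells isolated from buffy-coat PBMCs by microbeads were plated in Xvivo medium (1.5*10^5 cells/well) and stimulated with anti-CD3/28 mAbs plus compound. IL-2 measured by ELISA in supernatants at 24 h or 48 h; CD25 and proliferation by flow cytometry, CD69 at 24 h. Activity classes based on IL-2 at 3 μM compound.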

[3] = enhancement of IFN-γ production, read-out: Activity Class IFN-γ
[4] = enhancement of IL-2 production, read-out: Activity Class IL-2

SMILES	EC50 [1, 3]	EC50 [1, 4]	Activity Class CD4+ [2]
Cl.N[C@H]1CSc2cc(F)c(C(=O)NCC3CCOCC3)cc2N(Cc2ccc(Cl)c(F)c2)C1=O [Example 56, (3R)-3-amino-5-[(4-chloro-3-fluorophenyl)methyl]-8-fluoro-N-(oxan-4-ylmethyl)-4-oxo-2,3,4,5-tetrahydro-1,5-benzothiazepine-7-carboxamide hydrochloride]	< 1.58 µM	1.58 to 5.01 µM	C (IL-2 production at 3 μM compound concentration between 2-fold increase as compared to mean IL-2 production of stimulated cells in the absence of compounds and <2 ng/mL)
CCCCNC(=O)c1cc2c(cc1F)SC[C@H](N)C(=O)N2Cc1ccc(Cl)c(F)c1 [Example 57, (3R)-3-amino-N-butyl-5-[(4-chloro-3-fluorophenyl)methyl]-8-fluoro-4-oxo-2,3,4,5-tetrahydro-1,5-benzothiazepine-7-carboxamide]	< 1.58 µM	1.58 to 5.01 µM	C (IL-2 production at 3 μM compound concentration between 2-fold increase as compared to mean IL-2 production of stimulated cells in the absence of compounds and <2 ng/mL)
CCCONC(=O)c1cc2c(cc1F)SC[C@H](N)C(=O)N2Cc1ccc(Cl)cc1.Cl [Example 58, (3R)-3-amino-5-[(4-chlorophenyl)methyl]-8-fluoro-4-oxo-N-propoxy-2,3,4,5-tetrahydro-1,5-benzothiazepine-7-carboxamide hydrochloride]	> 5.01 µM	> 5.01 µM	C (IL-2 production at 3 μM compound concentration between 2-fold increase as compared to mean IL-2 production of stimulated cells in the absence of compounds and <2 ng/mL)
CC(C)CONC(=O)c1cc2c(cc1F)SC[C@H](N)C(=O)N2Cc1ccc(Cl)cc1.Cl [Example 59, (3R)-3-amino-5-[(4-chlorophenyl)methyl]-8-fluoro-N-(2-methylpropoxy)-4-oxo-2,3,4,5-tetrahydro-1,5-benzothiazepine-7-carboxamide hydrochloride]	1.58 to 5.01 µM	1.58 to 5.01 µM	C (IL-2 production at 3 μM compound concentration between 2-fold increase as compared to mean IL-2 production of stimulated cells in the absence of compounds and <2 ng/mL)
CC(C)CNNC(=O)c1cc2c(cc1F)SC[C@H](N)C(=O)N2Cc1ccc(Cl)cc1.Cl [Example 60, (3R)-3-amino-5-[(4-chlorophenyl)methyl]-8-fluoro-N′-(2-methylpropyl)-4-oxo-2,3,4,5-tetrahydro-1,5-benzothiazepine-7-carbohydrazide hydrochloride]	< 1.58 µM	1.58 to 5.01 µM	C (IL-2 production at 3 μM compound concentration between 2-fold increase as compared to mean IL-2 production of stimulated cells in the absence of compounds and <2 ng/mL)
CC(C)C(C)NC(=O)c1ccc2c(c1)N(Cc1ccc(Cl)cc1)C(=O)[C@@H](N)CS2.Cl (stereo partly drawn) [Example 63, (3R)-3-amino-5-[(4-chlorophenyl)methyl]-N-(3-methylbutan-2-yl)-4-oxo-2,3,4,5-tetrahydro-1,5-benzothiazepine-7-carboxamide hydrochloride]	1.58 to 5.01 µM	1.58 to 5.01 µM	B (IL-2 production at 3 μM compound concentration between 2-10 ng/mL)
C=CCCNC(=O)c1ccc2c(c1)N(Cc1ccc(Cl)cc1)C(=O)[C@@H](N)CS2.Cl [Example 64, (3R)-3-amino-N-(but-3-en-1-yl)-5-[(4-chlorophenyl)methyl]-4-oxo-2,3,4,5-tetrahydro-1,5-benzothiazepine-7-carboxamide hydrochloride]	1.58 to 5.01 µM	> 5.01 µM	C (IL-2 production at 3 μM compound concentration between 2-fold increase as compared to mean IL-2 production of stimulated cells in the absence of compounds and <2 ng/mL)
CC(C)CNNC(=O)c1ccc2c(c1)N(Cc1ccc(Cl)cc1)C(=O)[C@@H](N)CS2.Cl [Example 65, (3R)-3-amino-5-[(4-chlorophenyl)methyl]-N′-(2-methylpropyl)-4-oxo-2,3,4,5-tetrahydro-1,5-benzothiazepine-7-carbohydrazide hydrochloride]	1.58 to 5.01 µM	1.58 to 5.01 µM	C (IL-2 production at 3 μM compound concentration between 2-fold increase as compared to mean IL-2 production of stimulated cells in the absence of compounds and <2 ng/mL)
CCCCNC(=O)c1ccc2c(c1)N(Cc1ccc(Cl)cc1)C(=O)[C@@H](N)C[S+]2[O-].Cl (stereo partly drawn) [Example 66, (3R)-3-amino-N-butyl-5-[(4-chlorophenyl)methyl]-1,4-dioxo-2,3,4,5-tetrahydro-1λ^4,5-benzothiazepine-7-carboxamide hydrochloride]	< 1.58 µM	1.58 to 5.01 µM	C (IL-2 production at 3 μM compound concentration between 2-fold increase as compared to mean IL-2 production of stimulated cells in the absence of compounds and <2 ng/mL)
Cl.N[C@H]1CS(=O)(=O)c2cc(F)c(C(=O)NOc3ccccc3)cc2N(Cc2ccc(OC(F)(F)F)cc2)C1=O [Example 74, (3R)-3-amino-8-fluoro-1,1,4-trioxo-N-phenoxy-5-{[4-(trifluoromethoxy)phenyl]methyl}-2,3,4,5-tetrahydro-1λ^6,5-benzothiazepine-7-carboxamide hydrochloride]	1.58 to 5.01 µM	> 5.01 µM	C (IL-2 production at 3 μM compound concentration between 2-fold increase as compared to mean IL-2 production of stimulated cells in the absence of compounds and <2 ng/mL)
CC(C)CONC(=O)c1cc2c(cc1F)S(=O)(=O)C[C@H](N)C(=O)N2Cc1ccc(Cl)cc1.Cl [Example 75, (3R)-3-amino-5-[(4-chlorophenyl)methyl]-8-fluoro-N-(2-methylpropoxy)-1,1,4-trioxo-2,3,4,5-tetrahydro-1λ^6,5-benzothiazepine-7-carboxamide hydrochloride]	1.58 to 5.01 µM	> 5.01 µM	B (IL-2 production at 3 μM compound concentration between 2-10 ng/mL)
CC(C)NC(=O)c1ccc2c(c1)N(Cc1ccc(Cl)cc1)C(=O)[C@@H](N)CS2(=O)=O.Cl [Example 79, (3R)-3-amino-5-[(4-chlorophenyl)methyl]-1,1,4-trioxo-N-(propan-2-yl)-2,3,4,5-tetrahydro-1λ^6,5-benzothiazepine-7-carboxamide hydrochloride]	1.58 to 5.01 µM	> 5.01 µM	B (IL-2 production at 3 μM compound concentration between 2-10 ng/mL)
Cl.N[C@H]1CS(=O)(=O)c2ccc(C(=O)NCCCC(F)(F)F)cc2N(Cc2ccc(Cl)cc2)C1=O [Example 80, (3R)-3-amino-5-[(4-chlorophenyl)methyl]-1,1,4-trioxo-N-(4,4,4-trifluorobutyl)-2,3,4,5-tetrahydro-1λ^6,5-benzothiazepine-7-carboxamide hydrochloride]	< 1.58 µM	< 1.58 µM	A (IL-2 production at 3 μM compound concentration >10 ng/mL)
CC(C)C(C)NC(=O)c1ccc2c(c1)N(Cc1ccc(Cl)cc1)C(=O)[C@@H](N)CS2(=O)=O.Cl (stereo partly drawn) [Example 83, (3R)-3-amino-5-[(4-chlorophenyl)methyl]-N-(3-methylbutan-2-yl)-1,1,4-trioxo-2,3,4,5-tetrahydro-1λ^6,5-benzothiazepine-7-carboxamide hydrochloride]	< 1.58 µM	> 5.01 µM	B (IL-2 production at 3 μM compound concentration between 2-10 ng/mL)
C=CCCNC(=O)c1ccc2c(c1)N(Cc1ccc(Cl)cc1)C(=O)[C@@H](N)CS2(=O)=O.Cl [Example 84, (3R)-3-amino-N-(but-3-en-1-yl)-5-[(4-chlorophenyl)methyl]-1,1,4-trioxo-2,3,4,5-tetrahydro-1λ^6,5-benzothiazepine-7-carboxamide hydrochloride]	< 1.58 µM	1.58 to 5.01 µM	B (IL-2 production at 3 μM compound concentration between 2-10 ng/mL)
Cl.N[C@H]1CS(=O)(=O)c2cc(F)c(C(=O)NC3CC3)cc2N(Cc2ccc(Cl)cc2)C1=O [Example 85, (3R)-3-amino-5-[(4-chlorophenyl)methyl]-N-cyclopropyl-8-fluoro-1,1,4-trioxo-2,3,4,5-tetrahydro-1λ^6,5-benzothiazepine-7-carboxamide hydrochloride]	1.58 to 5.01 µM	1.58 to 5.01 µM	C (IL-2 production at 3 μM compound concentration between 2-fold increase as compared to mean IL-2 production of stimulated cells in the absence of compounds and <2 ng/mL)
Cl.N[C@H]1CS(=O)(=O)c2cc(F)c(C(=O)NC3CCC3)cc2N(Cc2ccc(Cl)cc2)C1=O [Example 86, (3R)-3-amino-5-[(4-chlorophenyl)methyl]-N-cyclobutyl-8-fluoro-1,1,4-trioxo-2,3,4,5-tetrahydro-1λ^6,5-benzothiazepine-7-carboxamide hydrochloride]	< 1.58 µM	1.58 to 5.01 µM	B (IL-2 production at 3 μM compound concentration between 2-10 ng/mL)
CC(C)NC(=O)c1cc2c(cc1F)S(=O)(=O)C[C@H](N)C(=O)N2Cc1ccc(Cl)cc1F.Cl [Example 87, (3R)-3-amino-5-[(4-chloro-2-fluorophenyl)methyl]-8-fluoro-1,1,4-trioxo-N-(propan-2-yl)-2,3,4,5-tetrahydro-1λ^6,5-benzothiazepine-7-carboxamide hydrochloride]	> 5.01 µM	> 5.01 µM	C (IL-2 production at 3 μM compound concentration between 2-fold increase as compared to mean IL-2 production of stimulated cells in the absence of compounds and <2 ng/mL)
